Laboratory results from US20240197726A1, “NOVEL TETRAHYDROISOQUINOLINE ALKALOID COMPOUND CONTAINING MACROCYCLE” (THE UNIVERSITY OF TOKYO, priority 2021, published 2024).
Read-outs that look alike come from different tables or passages of the source.

What was measured:
Assay type in all cases: cell-based
[1] = tested on: HCC2998 colorectal cancer cells; assay: antitumor activity, sulforhodamine B cell growth assay, HCC2998
Description: (§1) The THIQ compound containing a macrocyclic structure of the present invention was administered to various cancer cell lines, and the antitumor activity (Go value) was observed. Specifically, verification was performed according to the literature (Yamori, T.; Matsunaga, A.; Sato, S.; Yamazaki, K.; Komi, A.; Ishizu, K. et al. Cancer Res. 1999, 59, 4042) by the following procedure.
(§2) Cells were plated at an appropriate density in a 96-well plate in RPMI 1640 together with 5% fetal bovine serum, and adhered overnight. The cells were exposed to a drug for 48 hours. Then, according to the sulforhodamine B assay described by Skehan et al (Skehan P., Storeng R., Scudiero D., Monks A., McMahon J., Vistica D., Warren J. T., Bokesch H., Kenney S., Boyd M. R. J Natl. Cancer Inst, 1990, 82, 1107-1112), the cell growth rate was measured. The absorbance of the control well (C) and the test well (T) was measured at 525 nm. In addition, the time at which the drug was added was set as time 0, and the absorbance for the test well (T0) was measured. Using these measured values, the cell growth inhibitory effect (% growth=PG) was calculated by the following formula at each concentration of the drug.
(§3) (T<T0): PG=100×[(T−T0)/T]
(§4) The PG values determined above for each cell line were plotted against the concentration (logarithm) on a semi-logarithmic graph, and summarized for each visceral cancer. Concentrations at which the dose-response curve of each cell line crossed the horizontal line of PG=50%, 0%, or −50% were calculated. These concentrations were defined as Log GI50, Log TGI, and Log LC50. Actually, using two data points of the drug concentration before and after crossing each horizontal line, the drug concentration (logarithmic value) at the intersection of the straight line connecting the two points and the horizontal line for each PG was calculated.

[2] = tested on: HT-29 colorectal cancer cells; assay: antitumor activity, sulforhodamine B cell growth assay, HT-29
Description: as §1, §2, §3, §4

[3] = tested on: HCT-116 colorectal cancer cells; assay: antitumor activity, sulforhodamine B cell growth assay, HCT-116
Description: as §1, §2, §3, §4

[4] = tested on: SF-539 central nervous system cancer cells; assay: antitumor activity, sulforhodamine B cell growth assay, SF-539
Description: as §1, §2, §3, §4

[5] = tested on: NCI-H460 lung cancer cells; assay: antitumor activity, sulforhodamine B cell growth assay, NCI-H460
Description: as §1, §2, §3, §4

[6] = tested on: SK-OV-3 cancer cells; assay: antitumor activity, sulforhodamine B cell growth assay, SK-OV-3
Description: as §1, §2, §3, §4

[7] = tested on: MKN-A gastric cancer cells; assay: antitumor activity, sulforhodamine B cell growth assay, MKN-A
Description: as §1, §2, §3, §4

[8] = tested on: NCI-H226 lung cancer cells; assay: antitumor activity, sulforhodamine B cell growth assay, NCI-H226
Description: as §1, §2, §3, §4

[9] = tested on: MKN1 gastric cancer cells; assay: antitumor activity, sulforhodamine B cell growth assay, MKN1
Description: as §1, §2, §3, §4

[10] = tested on: RXF-631L kidney cancer cells; assay: antitumor activity, sulforhodamine B cell growth assay, RXF-631L
Description: as §1, §2, §3, §4

[11] = tested on: ACHN kidney cancer cells; assay: antitumor activity, sulforhodamine B cell growth assay, ACHN
Description: as §1, §2, §3, §4

[12] = tested on: LOX-IMVI melanoma cells; assay: antitumor activity, sulforhodamine B cell growth assay, LOX-IMVI
Description: as §1, §2, §3, §4

[13] = tested on: MCF-7 breast cancer cells; assay: antitumor activity, sulforhodamine B cell growth assay, MCF-7
Description: as §1, §2, §3, §4

[14] = tested on: SNB-75 central nervous system cancer cells; assay: antitumor activity, sulforhodamine B cell growth assay, SNB-75
Description: as §1, §2, §3, §4

[15] = tested on: HBC-5 breast cancer cells; assay: antitumor activity, sulforhodamine B cell growth assay, HBC-5
Description: as §1, §2, §3, §4

[16] = tested on: St-4 gastric cancer cells; assay: antitumor activity, sulforhodamine B cell growth assay, St-4
Description: as §1, §2, §3, §4

[17] = tested on: SNB-78 central nervous system cancer cells; assay: antitumor activity, sulforhodamine B cell growth assay, SNB-78
Description: as §1, §2, §3, §4

[18] = MKN-A, drug exposure 48 hours, read-out: GI50 value: 50% growth inhibitory concentration
[19] = RXF-631L, drug exposure 48 hours, read-out: GI50 value: 50% growth inhibitory concentration
[20] = St-4 (SI-4 in Tables 2-11), drug exposure 48 hours, read-out: GI50 value: 50% growth inhibitory concentration

## C#CCN1C/C=C/C(=C)COc2c(C)c3c(c4c2C[C@H]2[C@H]5c6c(cc(C)c(OC)c6O)C[C@@H]([C@H](C#N)N2C4CNC(=O)[C@@H]1C)N5C)OCO3 [Compound 35]
[1]; Homo sapiens, HCC 2998, HCC2998, drug exposure 48 hours, read-out: GI50 value: 50% growth inhibitory concentration
  GI50: 3.6 nM
[2]; Homo sapiens, HT-29, drug exposure 48 hours, read-out: GI50 value: 50% growth inhibitory concentration
  GI50: 3.2 nM
[3]; Homo sapiens, HCT-116, drug exposure 48 hours, read-out: GI50 value: 50% growth inhibitory concentration
  GI50: 2.7 nM
[4]; Homo sapiens, SF-539, drug exposure 48 hours, read-out: GI50 value: 50% growth inhibitory concentration
  GI50: 2.2 nM
[5]; Homo sapiens, NCI-H460, drug exposure 48 hours, read-out: GI50 value: 50% growth inhibitory concentration
  GI50: 3.4 nM
[6]; Homo sapiens, SK-OV-3, drug exposure 48 hours, read-out: GI50 value: 50% growth inhibitory concentration
  GI50: 6.5 nM
[7]; [18]
  GI50: 3.7 nM
[8]; Homo sapiens, NCI-H226, drug exposure 48 hours, read-out: GI50 value: 50% growth inhibitory concentration
  GI50: 2.7 nM
[9]; Homo sapiens, MKN-1, MKN1, drug exposure 48 hours, read-out: GI50 value: 50% growth inhibitory concentration
  GI50: 2.7 nM
[10]; [19]
  GI50: 2.9 nM
[11]; Homo sapiens, ACHN, drug exposure 48 hours, read-out: GI50 value: 50% growth inhibitory concentration
  GI50: 3.1 nM
[12]; Homo sapiens, LOX-IMVI, drug exposure 48 hours, read-out: GI50 value: 50% growth inhibitory concentration
  GI50: 1.7 nM
[13]; Homo sapiens, MCF7, MCF-7, drug exposure 48 hours, read-out: GI50 value: 50% growth inhibitory concentration
  GI50: 0.87 nM
[14]; Homo sapiens, SNB-75, drug exposure 48 hours, read-out: GI50 value: 50% growth inhibitory concentration
  GI50: 1.7 nM
[15]; HBC5, HBC-5, drug exposure 48 hours, read-out: GI50 value: 50% growth inhibitory concentration
  GI50: 2.7 nM
[16]; [20]
  GI50: 3.8 nM
[17]; Homo sapiens, SNB-78, drug exposure 48 hours, read-out: GI50 value: 50% growth inhibitory concentration
  GI50: 3.4 nM

## COC1=C(C)C(=O)C2=C(C1=O)[C@H](CNC(=O)[C@H](C)N)N1C(C2)[C@H]2c3c(cc(C)c(OC)c3O)C[C@@H]([C@@H]1C#N)N2C (some centres unmarked) [Cyanosafracin B, reference compound]
[1]; HCC2998, drug exposure 48 hours, read-out: GI50 value: 50% growth inhibitory concentration
  GI50: 350 nM
[2]; HT-29, drug exposure 48 hours, read-out: GI50 value: 50% growth inhibitory concentration
  GI50: 190 nM
[3]; HCT-116, drug exposure 48 hours, read-out: GI50 value: 50% growth inhibitory concentration
  GI50: 290 nM
[4]; SF-539, drug exposure 48 hours, read-out: GI50 value: 50% growth inhibitory concentration
  GI50: 180 nM
[5]; NCI-H460, drug exposure 48 hours, read-out: GI50 value: 50% growth inhibitory concentration
  GI50: 400 nM
[6]; SK-OV-3, drug exposure 48 hours, read-out: GI50 value: 50% growth inhibitory concentration
  GI50: 540 nM
[7]; [18]
  GI50: 250 nM
[8]; NCI-H226, drug exposure 48 hours, read-out: GI50 value: 50% growth inhibitory concentration
  GI50: 310 nM
[9]; MKN1, drug exposure 48 hours, read-out: GI50 value: 50% growth inhibitory concentration
  GI50: 52 nM
[10]; [19]
  GI50: 400 nM
[11]; ACHN, drug exposure 48 hours, read-out: GI50 value: 50% growth inhibitory concentration
  GI50: 320 nM
[12]; LOX-IMVI, drug exposure 48 hours, listed as drawing 116, read-out: GI50 value: 50% growth inhibitory concentration
  GI50: 81 nM
[12]; LOX-IMVI, drug exposure 48 hours, listed as drawing 120, read-out: GI50 value: 50% growth inhibitory concentration
  GI50: 61 nM
[13]; MCF-7, drug exposure 48 hours, read-out: GI50 value: 50% growth inhibitory concentration
  GI50: 52 nM
[14]; SNB-75, drug exposure 48 hours, read-out: GI50 value: 50% growth inhibitory concentration
  GI50: 150 nM
[15]; HBC-5, drug exposure 48 hours, listed as drawing 116, read-out: GI50 value: 50% growth inhibitory concentration
  GI50: 82 nM
[15]; HBC-5, drug exposure 48 hours, listed as drawing 120, read-out: GI50 value: 50% growth inhibitory concentration
  GI50: 62 nM
[16]; [20]
  GI50: 430 nM
[17]; SNB-78, drug exposure 48 hours, read-out: GI50 value: 50% growth inhibitory concentration
  GI50: 63 nM

## CC1=C(C)C(=O)C2=C(CC3(C)[C@H]4c5c(cc(C)c(C)c5C)C[C@@](C)(C(C)N3[C@H]2CNC(=O)C(C)C)N4C)C1=O (some centres unmarked) [drawing 160]
[1]; Homo sapiens, HCC 2998, HCC2998 colorectal cancer cells, read-out: antitumor activity GI50 value: 50% growth inhibitory concentration
  GI50: 350 nM
[2]; Homo sapiens, HT-29 colorectal cancer cells, read-out: antitumor activity GI50 value: 50% growth inhibitory concentration
  GI50: 190 nM
[3]; Homo sapiens, HCT-116 colorectal cancer cells, read-out: antitumor activity GI50 value: 50% growth inhibitory concentration
  GI50: 290 nM
[4]; Homo sapiens, SF-539 central nervous system cancer cells, read-out: antitumor activity GI50 value: 50% growth inhibitory concentration
  GI50: 180 nM
[5]; Homo sapiens, NCI-H460, NCl--H460 lung cancer cells, read-out: antitumor activity GI50 value: 50% growth inhibitory concentration
  GI50: 400 nM
[6]; Homo sapiens, SK-OV-3 cervical cancer cells, read-out: antitumor activity GI50 value: 50% growth inhibitory concentration
  GI50: 540 nM
[7]; MKN-A gastric cancer cells, read-out: antitumor activity GI50 value: 50% growth inhibitory concentration
  GI50: 250 nM
[8]; Homo sapiens, NCI-H226, NCl-H226 lung cancer cells, read-out: antitumor activity GI50 value: 50% growth inhibitory concentration
  GI50: 310 nM
[9]; Homo sapiens, MKN-1, MKN1 gastric cancer cells, read-out: antitumor activity GI50 value: 50% growth inhibitory concentration
  GI50: 52 nM
[10]; RXF-631L kidney cancer cells, read-out: antitumor activity GI50 value: 50% growth inhibitory concentration
  GI50: 400 nM
[11]; Homo sapiens, ACHN kidney cancer cells, read-out: antitumor activity GI50 value: 50% growth inhibitory concentration
  GI50: 320 nM
[12]; Homo sapiens, LOX-IMVI melanoma cells, read-out: antitumor activity GI50 value: 50% growth inhibitory concentration
  GI50: 61 nM
[13]; Homo sapiens, MCF7, MCF-7 breast cancer cells, read-out: antitumor activity GI50 value: 50% growth inhibitory concentration
  GI50: 52 nM
[14]; Homo sapiens, SNB-75 central nervous system cancer cells, read-out: antitumor activity GI50 value: 50% growth inhibitory concentration
  GI50: 150 nM
[15]; HBC5, HBC-5 breast cancer cells, read-out: antitumor activity GI50 value: 50% growth inhibitory concentration
  GI50: 62 nM
[16]; SI-4 gastric cancer cells, read-out: antitumor activity GI50 value: 50% growth inhibitory concentration
  GI50: 430 nM
[17]; Homo sapiens, SNB-78 central nervous system cancer cells, read-out: antitumor activity GI50 value: 50% growth inhibitory concentration
  GI50: 63 nM
